This is an account of results in patent US20080293712A1, “Benzo[C][2,7]Naphtyridine Derivatives, Methods of Making Thereof and Methods of Use Thereof” (WYETH, priority 2007, published 2008).

This assay deals with T1, PDK-1 (Homo sapiens, UniProt O15530).
T1 sequence (O15530 1-556): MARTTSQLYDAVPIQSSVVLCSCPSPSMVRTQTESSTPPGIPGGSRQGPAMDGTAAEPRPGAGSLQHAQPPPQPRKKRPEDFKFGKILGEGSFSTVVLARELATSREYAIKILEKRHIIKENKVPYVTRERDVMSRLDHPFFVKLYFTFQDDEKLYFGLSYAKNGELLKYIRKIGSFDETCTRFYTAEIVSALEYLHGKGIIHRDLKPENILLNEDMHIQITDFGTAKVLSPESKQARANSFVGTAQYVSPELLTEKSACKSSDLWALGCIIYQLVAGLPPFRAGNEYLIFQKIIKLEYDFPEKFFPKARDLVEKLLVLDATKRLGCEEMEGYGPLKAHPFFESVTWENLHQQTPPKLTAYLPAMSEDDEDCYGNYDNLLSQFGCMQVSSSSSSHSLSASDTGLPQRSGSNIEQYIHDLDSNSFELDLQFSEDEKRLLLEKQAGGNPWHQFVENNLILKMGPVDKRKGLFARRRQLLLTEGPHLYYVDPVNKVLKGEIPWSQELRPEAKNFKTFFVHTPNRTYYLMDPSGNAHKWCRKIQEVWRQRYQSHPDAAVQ
As to the kind of experiment: PDK-1 kinase inhibition ELISA assay (phosphorylation of His6-tagged SGK1 S422D by PDK-1). The class given is biochemical. Particulars: PDK-1 ELISA, Table 11; read-out: Average IC50.
As for `COc1cc2ncc3c(N)nc(-c4cncc(OC[C@@H](N)CO)c4)cc3c2cc1OC` [Ib-10, (2S)-2-amino-3-{[5-(4-amino-8,9-dimethoxybenzo[c]-2,7-naphthyridin-2-yl)pyridin-3-yl]oxy}propan-1-ol], the IC50 came to 6 nM. On to `COc1cc2ncc3c(N)nc(-c4cncc(OCCN)c4)cc3c2cc1OC` [Ib-11, 2-(5-(2-aminoethoxy)pyridin-3-yl)-8,9-dimethoxybenzo [c][2,7]naphthyridin-4-amine], for which the IC50 stood at 5 nM.

As to `COc1cc2ncc3c(N)nc(-c4cncc(OC[C@@H](N)Cc5c[nH]c6ccccc56)c4)cc3c2cc1OC` [Ib-13, 2-(5-{[(2S)-2-amino-3-(1H-indol-3-yl)propyl]oxy}pyridin-3-yl)-8,9-dimethoxybenzo[c]-2,7-naphthyridin-4-amine], the 50% inhibitory concentration (IC50) came to 6 nM. As for `CC[C@H](N)COc1cncc(-c2cc3c(cnc4cc(OC)c(OC)cc43)c(N)n2)c1` [Ib-14, 2-(5-{[(2S)-2-aminobutyl]oxy}pyridin-3-yl)-8,9-dimethoxybenzo[c]-2,7-naphthyridin-4-amine], the figure is 6 nM; as for `COc1cc2ncc3c(N)nc(-c4cncc(Br)c4)cc3c2cc1OC` [Ib-15, 2-(5-bromopyridin-3-yl)-8,9-dimethoxybenzo[c]-2,7-naphthyridin-4-amine], 66 nM; as for `COc1cc2ncc3c(N)nc(-c4cncc(OC[C@@H](Cc5ccccc5)NC=O)c4)cc3c2cc1OC` [Ib-16, N-((1R)-2-{[5-(4-amino-8,9-dimethoxybenzo[c]-2,7-naphthyridin-2-yl)pyridin-3-yl]oxy}-1-benzylethyl)formamide], 38 nM. Regarding `CC[C@@H](N)COc1cncc(-c2cc3c(cnc4cc(OC)c(OC)cc43)c(N)n2)c1` [Ib-18, 2-(5-{[(2R)-2-aminobutyl]oxy}pyridin-3-yl)-8,9-dimethoxybenzo[c]-2,7-naphthyridin-4-amine], the IC50 amounted to 2 nM. As for `COc1cc2ncc3c(N)nc(-c4cncc(OC[C@@H](N)Cc5ccc(N)cc5)c4)cc3c2cc1OC` [Ib-19, 2-(5-{[(2S)-2-amino-3-(4-aminophenyl)propyl]oxy}pyridin-3-yl)-8,9-dimethoxybenzo[c]-2,7-naphthyridin-4-amine], the figure is 81 nM. Then `COc1cc2ncc3c(N)nc(-c4cncc(OC[C@@H](N)CN5CCN(c6ccccn6)CC5)c4)cc3c2cc1OC` [Ib-20, 2-(5-{[(2S)-2-amino-3-(4-pyridin-2-ylpiperazin-1-yl)propyl]oxy}pyridin-3-yl)-8,9-dimethoxybenzo[c]-2,7-naphthyridin-4-amine], with 66 nM; and `CCN(Cc1ccncc1)C[C@H](N)COc1cncc(-c2cc3c(cnc4cc(OC)c(OC)cc43)c(N)n2)c1` [Ib-21, (2S)-3-{[5-(4-amino-8,9-dimethoxybenzo[c]-2,7-naphthyridin-2-yl)pyridin-3-yl]oxy}-N1-ethyl-N1-(pyridin-4-ylmethyl)propane-1,2-diamine], with 7 nM. Regarding `COc1cc2ncc3c(N)nc(-c4cncc(C#CCN(C)[C@H](C)Cc5ccccc5)c4)cc3c2cc1OC` [Ib-22, 8,9-Dimethoxy-2-[5-(3-{methyl[(1R)-1-methyl-2-phenylethyl]amino}prop-1-yn-1-yl)pyridin-3-yl]benzo[c]-2,7-naphthyridin-4-amine], the concentration for half-maximal inhibition (IC50) is greater than 100 nM. Then `COc1cc2ncc3c(N)nc(-c4cccnc4C)cc3c2cc1OC` [Ib-60], with 532 nM; and `COc1cc2ncc3c(N)nc(N(C)Cc4cccnc4)cc3c2cc1OC` [Ib-64, 8,9-dimethoxy-N^2-methyl-N^2-(pyridin-3-ylmethyl)benzo[c]-2,7-naphthyridine-2,4-diamine], with 3580 nM; and `COc1cc2ncc3c(N)nc(N4CC[C@@H](O)C4)cc3c2cc1OC` [Ib-65, (3R)-1-(4-amino-8,9-dimethoxybenzo[c]-2,7-naphthyridin-2-yl)pyrrolidin-3-ol], with 4610 nM. Turning to `COc1cc2ncc3c(N)nc(N4CC[C@@H](N(C)C)C4)cc3c2cc1OC` [Ib-66, 2-[(3R)-3-(dimethylamino)pyrrolidin-1-yl]-8,9-dimethoxybenzo[c]-2,7-naphthyridin-4-amine], the concentration for half-maximal inhibition (IC50) worked out at 4970 nM. As for `COc1cc2ncc3c(N)nc(N4CC[C@H](N(C)C)C4)cc3c2cc1OC` [Ib-67, 2-[(3S)-3-(dimethylamino)pyrrolidin-1-yl]-8,9-dimethoxybenzo[c]-2,7-naphthyridin-4-amine], the concentration for half-maximal inhibition (IC50) is 9640 nM. Then `COc1cc2ncc3c(N)nc(N4CC[C@H](O)C4)cc3c2cc1OC` [Ib-68, (3S)-1-(4-amino-8,9-dimethoxybenzo[c]-2,7-naphthyridin-2-yl)pyrrolidin-3-ol], with 4120 nM; and `CCNCCOc1cncc(-c2cc3c(cnc4cc(OC)c(OC)cc43)c(N)n2)c1` [Ib-73, 2-(5-(2-(ethylamino)ethoxy)pyridin-3-yl)-8,9-dimethoxybenzo[c][2,7]naphthyridin-4-amine], with 46.5 nM; and `COc1cc2ncc3c(N)nc(-c4cccc(C(=O)O)c4)cc3c2cc1OC` [Ib-76, 3-(4-amino-8,9-dimethoxybenzo[c][2,7]naphthyridin-2-yl)benzoic acid], with 524 nM. For the molecule `CCCCN(C[C@H](N)COc1cncc(-c2cc3c(cnc4cc(OC)c(OC)cc43)c(N)n2)c1)S(=O)(=O)c1ccccc1` [Ib-77, N-[(2S)-2-amino-3-{[5-(4-amino-8,9-dimethoxybenzo[c][2,7]naphthyridin-2-yl)pyridin-3-yl]oxy}propyl]-N-butylbenzenesulfonamide], the IC50 was 21 nM.

`COc1cc2ncc3c(N)nc(-c4cncc(OC[C@@H](N)CN(C)S(=O)(=O)c5ccccc5)c4)cc3c2cc1OC` [Ib-79, N-[(2S)-2-amino-3-{[5-(4-amino-8,9-dimethoxybenzo[c][2,7]naphthyridin-2-yl)pyridin-3-yl]oxy}propyl]-N-methylbenzenesulfonamide]: the IC50 was 11 nM.

For the molecule `COc1cc2ncc3c(N)nc(-c4cncc(OC[C@@H](N)CNc5ccccc5)c4)cc3c2cc1OC` [Ib-80, (2S)-3-{[5-(4-amino-8,9-dimethoxybenzo[c][2,7]naphthyridin-2-yl)pyridin-3-yl]oxy}-N^1-phenylpropane-1,2-diamine], the half-inhibitory concentration (IC50) is 3 nM. Turning to `COc1cc2ncc3c(N)nc(-c4cncc(OC[C@@H](N)CNc5ccc(C)c(F)c5)c4)cc3c2cc1OC` [Ib-81, (2S)-3-{[5-(4-amino-8,9-dimethoxybenzo[c][2,7]naphthyridin-2-yl)pyridin-3-yl]oxy}-N1-(3-fluoro-4-methylphenyl)propane-1,2-diamine], the IC50 was determined as 22 nM. Take `COc1cc2ncc3c(N)nc(-c4cncc(OC[C@@H](N)Cn5ccc(=N)cc5)c4)cc3c2cc1OC` [Ib-82, 2-(5-{[(2S)-2-amino-3-(4-iminopyridin-1(4H)-yl)propyl]oxy}pyridin-3-yl)-8,9-dimethoxybenzo[c][2,7]naphthyridin-4-amine]: the IC50 is 92 nM. As for `COc1cc2ncc3c(N)nc(-c4cncc(OC[C@@H](N)CN(C)c5cccc(F)c5)c4)cc3c2cc1OC` [Ib-83, (2S)-3-{[5-(4-amino-8,9-dimethoxybenzo[c][2,7]naphthyridin-2-yl)pyridin-3-yl]oxy}-N1-(3-fluorophenyl)-N1-methylpropane-1,2-diamine], the figure is 5 nM; as for `COc1cc2ncc3c(N)nc(-c4cncc(OC[C@@H](N)CNc5ccc(F)c(Cl)c5)c4)cc3c2cc1OC` [Ib-84, (2S)-3-{[5-(4-amino-8,9-dimethoxybenzo[c][2,7]naphthyridin-2-yl)pyridin-3-yl]oxy}-N1-(3-chloro-4-fluorophenyl)propane-1,2-diamine], 5 nM. Then `COc1cc2ncc3c(N)nc(-c4cncc(OC[C@@H](N)CNc5ccc(F)cc5F)c4)cc3c2cc1OC` [Ib-85, (2S)-3-{[5-(4-amino-8,9-dimethoxybenzo[c][2,7]naphthyridin-2-yl)pyridin-3-yl]oxy}-N1-(2,4-difluorophenyl)propane-1,2-diamine], with 5 nM. For `COc1cc2ncc3c(N)nc(-c4cncc(OC[C@@H](N)CNC(C)(C)C)c4)cc3c2cc1OC` [Ib-86, (2S)-3-{[5-(4-amino-8,9-dimethoxybenzo[c][2,7]naphthyridin-2-yl)pyridin-3-yl]oxy}-N1-tert-butylpropane-1,2-diamine], the 50% inhibitory concentration (IC50) was 77 nM. Turning to `COc1cc2ncc3c(N)nc(-c4cncc(OC[C@@H](N)CNC(C)(C)Cc5ccc(F)cc5)c4)cc3c2cc1OC` [Ib-87, (2S)-3-{[5-(4-amino-8,9-dimethoxybenzo[c][2,7]naphthyridin-2-yl)pyridin-3-yl]oxy}-N1-[2-(4-fluorophenyl)-1,1-dimethylethyl]propane-1,2-diamine], the IC50 is 12 nM. In the case of `COc1cc2ncc3c(N)nc(-c4cncc(OC[C@@H](N)CNC5CCCCC5)c4)cc3c2cc1OC` [Ib-89, (2S)-3-{[5-(4-amino-8,9-dimethoxybenzo[c][2,7]naphthyridin-2-yl)pyridin-3-yl]oxy}-N1-cyclohexylpropane-1,2-diamine], the 50% inhibitory concentration (IC50) was found to be 61 nM.

Take `COc1cc2ncc3c(N)nc(-c4cncc(OC[C@@H](N)CNC(C)(C)c5ccccc5)c4)cc3c2cc1OC` [Ib-90, (2S)-3-{[5-(4-amino-8,9-dimethoxybenzo[c][2,7]naphthyridin-2-yl)pyridin-3-yl]oxy}-N1-(1-methyl-1-phenylethyl)propane-1,2-diamine]: the 50% inhibitory concentration (IC50) came out at 7 nM.
